Converted amounts (≈) assume the structure as drawn.
Settings: buffer; pH 7.4; 6.0 h; 150.0 µM

Row | SMILES | solubility kinetic [µg/mL]
1 | C=Cc1ccc(Cn2c(C(=O)O)c(CNCc3ccccc3)c3ccc(OC)cc32)cc1 | 5.42 (≈ 12.7 µM)
2 | O=C(Nc1ccc(S(=O)(=O)N2CCN(Cc3ccccc3)CC2)cc1)c1cnccn1 | < 1
3 | Nc1ncccc1-c1nc2ccc(-c3ccccc3)nc2n1-c1ccc(C2(N)CCC2)cc1 | > 64
4 | c1ccc2c(Nc3ccc4nc[nH]c4c3)nc(-c3ccncc3)nc2c1 | < 1
5 | COc1ccc(-n2nc(C3CCN(C(=O)C4CC4)CC3)[nH]c2=O)cc1 | > 51
6 | O=C(NCCCO)c1ccc(-c2ncc3cnc(-c4cccc(F)c4)cn23)cc1 | > 86
7 | Brc1ccccc1-c1nc(NCc2ccc(-c3cccnc3)cc2)c2ccccc2n1 | < 1
8 | CCN1C(=O)c2ccccc2[S@](=O)c2ccc(C(=O)NCc3ccc(C#N)cc3)cc21 | 29.4 (≈ 68.5 µM)
9 | O=C(Cc1nc2ccc(Cl)cc2[nH]1)Nc1ccc(S(=O)(=O)Nc2nccs2)cc1 | 4.93 (≈ 11 µM)
10 | Fc1cnc(-c2ccccc2C(F)F)nc1NCC1CCN(c2cnccn2)CC1 | < 1
11 | COc1ccc(OC)c(-c2nc3c(C#N)c[nH]n3c2NC2CCCCC2)c1 | 12.2 (≈ 33.5 µM)
12 | O=C(Nc1nc2cc(C(F)(F)F)cc(NC3CC3)n2n1)c1cccnc1 | < 1
13 | CCCc1ccc(C(=O)NC(=O)c2ccccc2O)cc1 | 1.6 (≈ 5.65 µM)
14 | O=C(c1ccc(C(=O)N2CCC(N3CCCC3)CC2)c(Nc2ccccc2)c1)N1CCC(N2CCCC2)CC1 | 63.8 (≈ 120 µM)
15 | CNC(=O)c1cc(Oc2ccc(NC(=O)Nc3cc(C(C)(C)C)nn3-c3ccc4ncccc4c3)c(F)c2)ccn1 | 3.5 (≈ 6.32 µM)
16 | COC(=O)c1cccc(NC(=O)c2cnc(-c3ccc(F)cc3)nc2-c2ccncc2)c1 | < 1
17 | Cc1ccc(-c2cc(C(=O)Nc3cccc(S(=O)(=O)Nc4nccs4)c3)c3ccccc3n2)cc1C | < 1
18 | Cc1ccc2[nH]c(-c3ccccc3)cc(=O)c2c1 | 3.41 (≈ 14.5 µM)
19 | O=C(Cc1ccc(Cl)c(Cl)c1)Nc1ccc(S(=O)(=O)Nc2cncnc2)cc1 | > 64
20 | c1ccc(Nc2cc3c(cn2)CN(Cc2ccc4[nH]ccc4c2)CCN3)cc1 | 30.6 (≈ 82.8 µM)
21 | CCc1ccc(C2N=C(N)Nc3nc4ccccc4n32)cc1 (stereo not given) | 6.87 (≈ 23.6 µM)
22 | COc1ccc(-n2nc(C3CCN([S+](=O)([O-])c4cccc(C(F)(F)F)c4)CC3)[nH]c2=O)cc1 | < 1
23 | O=C(CCc1ccccc1)NC(c1cccs1)c1cc(Cl)c2cccnc2c1O (stereo not given) | < 1
24 | COC(=O)CNC(=O)c1nc(-c2ccc([S+](C)(=O)[O-])cc2)c2cnccn12 | > 57

Row | SMILES | solubility kinetic [µg/mL]
25 | COc1cccc2c1CCCC2CCCN1CCN(C2CCCCC2)CC1 (stereo not given) | > 55
26 | Cc1ccnc(NC(=S)N2CCN(c3cccc(Cl)c3Cl)CC2)c1 | 2.51 (≈ 6.58 µM)
27 | Cc1cnc(-c2ccccc2C2COC2)nc1NCc1ccc(-n2ccnn2)cc1 | > 59
28 | CCOc1ccc(CCNC(=O)c2ccnn2Cc2cccc(C)c2)cc1OCC | 2.88 (≈ 7.06 µM)
29 | O=C(Nc1ncc(Cc2ccc(C(F)(F)F)cc2)s1)c1ncc(-c2ccccc2)[nH]1 | < 1
30 | COc1nccc(-c2nc(Nc3ccc(F)c(F)c3)c3ccccc3n2)c1OC | < 1
31 | Cc1cc(C)nc(NC(=S)N2CCN(c3cccc(C(F)(F)F)c3)CC2)c1 | 0.748 (≈ 1.9 µM)
32 | COc1ccccc1NS(=O)(=O)c1cccc(NC(=O)c2[nH]c(C)c(C(C)=O)c2C)c1 | 15.2 (≈ 34.4 µM)
33 | NC(=O)C1CCN(c2nc(-c3cccs3)cs2)CC1 | > 43
34 | Cc1ccc(-c2cc(C(=O)Nc3ccc(S(N)(=O)=O)cc3)c3cccc(C)c3n2)cc1C | < 1
35 | O=C(NCc1cccnc1)c1nc(-c2ccc(Cl)nc2)c2cnccn12 | 4.69 (≈ 12.9 µM)
36 | CS(=O)(=O)c1ccccc1-c1csc(N2CCC(C(N)=O)CC2)n1 | > 54
37 | O=C(NC1CC1)c1nc(-c2cccnc2)c2ccccn12 | > 62
38 | COc1cc2nccc(Oc3ccc(NC(=O)C4(C(=O)Nc5ccc(F)cc5)CC4)cc3)c2cc1OC | < 1
39 | Cn1c(C(=O)NCCc2ccccn2)nc2nc(-c3ccccc3)c(Cl)cc21 | 1.11 (≈ 2.84 µM)
40 | O=C(NC[C@H]1Cn2c(-c3ccc(Cl)cc3)cnc2CO1)C1CCCC1 | > 36
41 | CC(=O)c1c(C)[nH]c(C(=O)Nc2cccc(S(=O)(=O)N3CCOCC3)c2)c1C | > 60
42 | CCN1C(=O)c2ccccc2[S@](=O)c2ccc(C(=O)N[C@H](C)c3ccc4ccccc4c3)cc21 | < 1
43 | NC(=O)c1ccc(-c2nc3c([nH]2)CN(C(=O)CN2CCOCC2)CC3)cc1 | > 55
44 | Cc1ccc(S(=O)(=O)Nc2ccc(C)cc2C(=O)Nc2nc(-c3ccccc3)cs2)cc1 | < 1
45 | Cc1ccnc(NC(=S)N2CCN(c3ccc(Cl)cc3Cl)CC2)c1 | 2.28 (≈ 5.97 µM)
46 | Cc1cc(C)nc(NC(=S)N2CCN(Cc3cccc(C(F)(F)F)c3)CC2)c1 | 35.9 (≈ 87.8 µM)
47 | Cc1sc(NC(=O)Cc2ccc3c(c2)OCO3)nc1-c1ccc2c(c1)CCN2C(=O)C1CCCCC1 | < 1
48 | O=C(Nc1nc(-c2ccccc2)cs1)c1ccncc1NS(=O)(=O)c1ccc(F)c(F)c1 | 49.8 (≈ 105 µM)

Row | SMILES | solubility kinetic [µg/mL]
49 | CN(C)c1cccc(-c2nccc(N3CCC(C(N)=O)CC3)n2)c1 | > 48
50 | COc1ccc(C[C@@H]2C(=O)N[C@H](C)C(=O)N(C)[C@@H]3C(=O)N(C)[C@@H](Cc4ccc(O)c(c4)Oc4ccc(cc4)[C@H]3O)C(=O)N[C@@H](C)C(=O)N[C@H](C)C(=O)N2C)cc1 | 96.4 (≈ 125 µM)
51 | O=C(Nc1ccccc1O)c1ccc(NC(=O)C2CC2)cc1 | 1.75 (≈ 5.92 µM)
52 | O=S(=O)(Nc1nccs1)c1ccc(NCc2cccc(Br)c2O)cc1 | 36.3 (≈ 82.5 µM)
53 | COCc1cc(C)nc(SCC(=O)c2ccc(O)c(O)c2)c1C#N | 13.2 (≈ 38.2 µM)
54 | CNC(=O)c1cc(Oc2ccc(NC(=O)Nc3ccc(Cl)c(C(F)(F)F)c3)c(F)c2)ccn1 | < 1
55 | O=C(Nc1nc(-c2ccccc2)cs1)c1ccncc1NS(=O)(=O)c1cccc2cccnc12 | 39.8 (≈ 81.6 µM)
56 | COc1ccc(-n2c(C)c(C(C)=O)c3cc(O)ccc32)cc1 | 5.69 (≈ 19.3 µM)
57 | Fc1cc(Nc2nc(-c3ccncc3)nc3ccccc23)ccc1N1CCCC1 | < 1
58 | COc1cccc(OC)c1C(=O)Nc1ccccc1C(=O)Nc1cccc(C(F)(F)F)c1 | < 1
59 | COc1ccc2cc1Oc1ccc(cc1)C[C@@H]1c3c(cc(OC)c4c3Oc3cc5c(cc3O4)CCN[C@H]5C2)CCN1C | < 1
60 | CCOc1ccc(CCNC(=O)c2ccc3ccccc3n2)cc1OCC | 8.84 (≈ 24.3 µM)
61 | COc1ccnc(NC(=S)N2CCN(c3ncc(C(F)(F)F)cc3Cl)CC2)c1 | 1.24 (≈ 2.86 µM)
62 | COc1cc(Nc2nc(-c3ccncc3)nc3ccccc23)ccc1F | < 1
63 | COc1c(O)ccc2c1CN1CCc3cc4c(cc3[C@@H]1C2)OCO4 | 19.6 (≈ 60.2 µM)
64 | N#Cc1ccc(-c2ccc(CNc3ccc(C4CCNCC4)cc3)o2)cc1 | 35.2 (≈ 98.6 µM)
65 | FC(F)(F)c1cccc(N2CCN(C(=S)Nc3cc4ccccc4cn3)CC2)c1 | < 1
66 | Cn1cc(S(=O)(=O)N2CCCCCC2)cc1C(=O)Nc1ccc(Cl)c(C(F)(F)F)c1 | < 1
67 | CC(C)(C)c1ccc(-n2cnc3cc(C(=O)N4CCCCC4)ccc32)cc1 | < 1
68 | CCc1ccc(OC(C)C(=O)N2CCC(c3nc4ccccc4o3)CC2)cc1 (stereo not given) | 17.9 (≈ 47.3 µM)
69 | CC(C)(C)c1ccc(-c2ccc(=O)n(CC(=O)NCCc3ccccc3)n2)cc1 | < 1
70 | Cc1cc(-c2nc(Nc3ccc(F)c(F)c3)c3ccccc3n2)cc(C)n1 | < 1
